# Species: Rattus norvegicus
# Assay: Open TG-GATES - Regimen: Daily Repeat
# Format: toxicity, organism-based, Sprague-Dawley
# Design: regimen Daily Repeat, gender Male, age 6 weeks
# Conditions: in vivo, po, 300 mg/kg, route gavage, dose level Middle; for APTT / Bas / Eos / Fbg / Hb / Ht / Lym / MCH / MCHC / MCV / Mono / Neu / PT / Plat / RBC / Ret / WBC: tissue Blood; for KIDNEY_L / KIDNEY_R / KIDNEY_TOTAL: tissue Kidney; for LIVER: tissue Liver; for A/G / ALP / ALT / AST / BUN / CRE / Ca / Cl / DBIL / GLC / IP / K / LDH / Na / PL / RALB / TBIL / TC / TG / TP / gamma-GTP: tissue Plasma
smiles,measurement,setting,value
COC1=CC(=O)C[C@@H](C)[C@]12Oc1c(Cl)c(OC)cc(OC)c1C2=O [GRISEOFULVIN],TERMINAL_BW,"72 h, time 3 day",228.3 g
same,APTT,"72 h, time 3 day",19.9 s
same,Bas,"72 h, time 3 day",0%
same,Eos,"72 h, time 3 day",1%
same,Fbg,"72 h, time 3 day",220 mg/dL
same,Hb,"72 h, time 3 day",13.6 g/dL
same,Ht,"72 h, time 3 day",40.4%
same,Lym,"72 h, time 3 day",73.2%
same,MCH,"72 h, time 3 day",20.8 pg
same,MCHC,"72 h, time 3 day",33.5%
same,MCV,"72 h, time 3 day",62.1 fL
same,Mono,"72 h, time 3 day",3%
same,Neu,"72 h, time 3 day",22.2%
same,PT,"72 h, time 3 day",12.5 s
same,Plat,"72 h, time 3 day",118.4 x10_4/uL
same,RBC,"72 h, time 3 day",651.8 x10_4/ul
same,Ret,"72 h, time 3 day",6.7%
same,WBC,"72 h, time 3 day",99.2 x10_2/uL
same,KIDNEY_L,"72 h, time 3 day",0.9 g
same,KIDNEY_R,"72 h, time 3 day",1 g
same,KIDNEY_TOTAL,"72 h, time 3 day",1.9 g
same,LIVER,"72 h, time 3 day",11.3 g
same,A/G,"72 h, time 3 day",1.6
same,ALP,"72 h, time 3 day",836.2 IU/L
same,ALT,"72 h, time 3 day",44.4 IU/L
same,AST,"72 h, time 3 day",68.2 IU/L
same,BUN,"72 h, time 3 day",13.8 mg/dL
same,CRE,"72 h, time 3 day",0.4 mg/dL
same,Ca,"72 h, time 3 day",10.8 mg/dL
same,Cl,"72 h, time 3 day",104.4 meq/L
same,DBIL,"72 h, time 3 day",0.084 mg/dL
same,GLC,"72 h, time 3 day",218.2 mg/dL
same,IP,"72 h, time 3 day",7.6 mg/dL
same,K,"72 h, time 3 day",3.8 meq/L
same,LDH,"72 h, time 3 day",160.4 IU/L
same,Na,"72 h, time 3 day",141.2 meq/L
same,PL,"72 h, time 3 day",141.6 mg/dL
same,RALB,"72 h, time 3 day",3.4 g/dL
same,TBIL,"72 h, time 3 day",0.1 mg/dL
same,TC,"72 h, time 3 day",80.4 mg/dL
same,TG,"72 h, time 3 day",69 mg/dL
same,TP,"72 h, time 3 day",5.6 g/dL
same,gamma-GTP,"72 h, time 3 day",1.2 IU/L
same,TERMINAL_BW,"[…], time 7 day",261.2 g
same,TERMINAL_BW,"[…], time 14 day",309.7 g
same,TERMINAL_BW,"[…], time 28 day",406.6 g
same,APTT,"[…], time 7 day",19 s
same,Bas,"[…], time 7 day",0%
same,Eos,"[…], time 7 day",0.6%
same,Fbg,"[…], time 7 day",224 mg/dL
same,Hb,"[…], time 7 day",13.7 g/dL
same,Ht,"[…], time 7 day",40.7%
same,Lym,"[…], time 7 day",76.6%
same,MCH,"[…], time 7 day",21.2 pg
same,MCHC,"[…], time 7 day",33.7%
same,MCV,"[…], time 7 day",62.9 fL
same,Mono,"[…], time 7 day",3%
same,Neu,"[…], time 7 day",18.6%
same,PT,"[…], time 7 day",12.3 s
same,Plat,"[…], time 7 day",140.6 x10_4/uL
same,RBC,"[…], time 7 day",646.8 x10_4/ul
same,Ret,"[…], time 7 day",5.7%
same,WBC,"[…], time 7 day",118 x10_2/uL
same,APTT,"[…], time 14 day",19.1 s
same,Bas,"[…], time 14 day",0%
same,Eos,"[…], time 14 day",1%
same,Fbg,"[…], time 14 day",228.6 mg/dL
same,Hb,"[…], time 14 day",14.2 g/dL
same,Ht,"[…], time 14 day",42.2%
same,Lym,"[…], time 14 day",82%
same,MCH,"[…], time 14 day",20.9 pg
same,MCHC,"[…], time 14 day",33.7%
same,MCV,"[…], time 14 day",61.9 fL
same,Mono,"[…], time 14 day",2.8%
same,Neu,"[…], time 14 day",13.6%
same,PT,"[…], time 14 day",12.2 s
same,Plat,"[…], time 14 day",115.6 x10_4/uL
same,RBC,"[…], time 14 day",682 x10_4/ul
same,Ret,"[…], time 14 day",2.8%
same,WBC,"[…], time 14 day",104.2 x10_2/uL
same,APTT,"[…], time 28 day",23.1 s
same,Bas,"[…], time 28 day",0%
same,Eos,"[…], time 28 day",1%
same,Fbg,"[…], time 28 day",215.8 mg/dL
same,Hb,"[…], time 28 day",15.2 g/dL
same,Ht,"[…], time 28 day",44.7%
same,Lym,"[…], time 28 day",81%
same,MCH,"[…], time 28 day",19.9 pg
same,MCHC,"[…], time 28 day",34%
same,MCV,"[…], time 28 day",58.8 fL
same,Mono,"[…], time 28 day",3.2%
same,Neu,"[…], time 28 day",14.4%
same,PT,"[…], time 28 day",12.6 s
same,Plat,"[…], time 28 day",108.5 x10_4/uL
same,RBC,"[…], time 28 day",761 x10_4/ul
same,Ret,"[…], time 28 day",2.7%
same,WBC,"[…], time 28 day",136.8 x10_2/uL
same,KIDNEY_L,"[…], time 7 day",1.1 g
same,KIDNEY_R,"[…], time 7 day",1.1 g
same,KIDNEY_TOTAL,"[…], time 7 day",2.2 g
same,KIDNEY_L,"[…], time 14 day",1.3 g
same,KIDNEY_R,"[…], time 14 day",1.3 g
same,KIDNEY_TOTAL,"[…], time 14 day",2.6 g
same,KIDNEY_L,"[…], time 28 day",1.4 g
same,KIDNEY_R,"[…], time 28 day",1.3 g
same,KIDNEY_TOTAL,"[…], time 28 day",2.7 g
same,LIVER,"[…], time 7 day",12.8 g
same,LIVER,"[…], time 14 day",14.8 g
same,LIVER,"[…], time 28 day",17.3 g
same,A/G,"[…], time 7 day",1.4
same,ALP,"[…], time 7 day",848 IU/L
same,ALT,"[…], time 7 day",35.6 IU/L
same,AST,"[…], time 7 day",58.4 IU/L
same,BUN,"[…], time 7 day",13.4 mg/dL
same,CRE,"[…], time 7 day",0.4 mg/dL
same,Ca,"[…], time 7 day",10.7 mg/dL
same,Cl,"[…], time 7 day",104 meq/L
same,DBIL,"[…], time 7 day",0.08 mg/dL
same,GLC,"[…], time 7 day",207.6 mg/dL
same,IP,"[…], time 7 day",7.5 mg/dL
same,K,"[…], time 7 day",3.7 meq/L
same,LDH,"[…], time 7 day",136.6 IU/L
same,Na,"[…], time 7 day",142.6 meq/L
same,PL,"[…], time 7 day",122.8 mg/dL
same,RALB,"[…], time 7 day",3.4 g/dL
same,TBIL,"[…], time 7 day",0.1 mg/dL
same,TC,"[…], time 7 day",70.4 mg/dL
same,TG,"[…], time 7 day",60 mg/dL
same,TP,"[…], time 7 day",5.8 g/dL
same,gamma-GTP,"[…], time 7 day",0.8 IU/L
same,A/G,"[…], time 14 day",1.5
same,ALP,"[…], time 14 day",784.6 IU/L
same,ALT,"[…], time 14 day",32 IU/L
same,AST,"[…], time 14 day",51.4 IU/L
same,BUN,"[…], time 14 day",14.8 mg/dL
same,CRE,"[…], time 14 day",0.6 mg/dL
same,Ca,"[…], time 14 day",10.6 mg/dL
same,Cl,"[…], time 14 day",102.8 meq/L
same,DBIL,"[…], time 14 day",0.078 mg/dL
same,GLC,"[…], time 14 day",221.6 mg/dL
same,IP,"[…], time 14 day",7.5 mg/dL
same,K,"[…], time 14 day",4.3 meq/L
same,LDH,"[…], time 14 day",112.2 IU/L
same,Na,"[…], time 14 day",140.2 meq/L
same,PL,"[…], time 14 day",142.6 mg/dL
same,RALB,"[…], time 14 day",3.5 g/dL
same,TBIL,"[…], time 14 day",0.1 mg/dL
same,TC,"[…], time 14 day",82.2 mg/dL
same,TG,"[…], time 14 day",59.6 mg/dL
same,TP,"[…], time 14 day",5.9 g/dL
same,gamma-GTP,"[…], time 14 day",1 IU/L
same,A/G,"[…], time 28 day",1.3
same,ALP,"[…], time 28 day",565.4 IU/L
same,ALT,"[…], time 28 day",34.8 IU/L
same,AST,"[…], time 28 day",55.2 IU/L
same,BUN,"[…], time 28 day",15.6 mg/dL
same,CRE,"[…], time 28 day",0.5 mg/dL
same,Ca,"[…], time 28 day",10.6 mg/dL
same,Cl,"[…], time 28 day",103 meq/L
same,DBIL,"[…], time 28 day",0.07 mg/dL
same,GLC,"[…], time 28 day",237.6 mg/dL
same,IP,"[…], time 28 day",7.3 mg/dL
same,K,"[…], time 28 day",3.7 meq/L
same,LDH,"[…], time 28 day",159.8 IU/L
same,Na,"[…], time 28 day",140.6 meq/L
same,PL,"[…], time 28 day",125.8 mg/dL
same,RALB,"[…], time 28 day",3.4 g/dL
same,TBIL,"[…], time 28 day",0.1 mg/dL
same,TC,"[…], time 28 day",70.4 mg/dL
same,TG,"[…], time 28 day",83 mg/dL
same,TP,"[…], time 28 day",6 g/dL
same,gamma-GTP,"[…], time 28 day",1 IU/L

# Reference: ChEMBL document CHEMBL3885861, “Open TG-GATES”
